# Legend:
# Assay type in all cases: cell-based
# [1] = system: human metastatic melanoma (A2058, ATCC CRL-11147) cells; experiment: Anti-cancer activity against A2058 cells; conditions: A2058, read-out: Anti-cancer IC50
# Method: Cytotoxicity of the test compounds was evaluated after 72 hour exposure to human metastatic melanoma (A2058, ATCC CRL-11147) cells.
# A2058 cells were grown overnight (2,000 cells/well), and then incubated with the test compounds (range of concentrations) diluted in MEM Earle's supplemented with gentamycin (10 μg/mL), non-essential amino acids (1%), sodium pyruvate (1 mM), L-alanyl-Lglutamine (2 mM), but without FBS (total volume was 100 μl) for […]. Ten μL of CellTiter 96® AQueous One Solution Reagent (Promega, Madison, Wis., USA) was added, and the plates were then further incubated for 1 hour.
# Absorbance was measured at 485 nm in a DTX 880 Multimode Detector. Results were calculated as % survival compared to negative (assay media) and positive (Triton X-100; Sigma-Aldrich) controls.
# [2] = system: Corynebacterium glutamicum ATCC 13032; experiment: MIC assay, antibiotic susceptible reference strain; conditions: ATCC13032; Corynebacterium glutamicum ATCC 13032; read-out: Antimicrobial activity (MIC) C. g
# Method: (§1) Working solutions of the test derivatives were prepared with up to 100% DMSO and stored at −20° C. If necessary, the solutions were heated to 40-80° C. before testing to facilitate complete dissolution. Double-distilled water was used in all dilutions prepared. […] A microdilution susceptibility test was used for MIC determination according to Clinical and Laboratory Standards Institute, “Methods for Dilution Antimicrobial Sisceptibility Tests for Bacteria That Graw Aerobically”, Approved Standard M07-A9, edition 2012, with modifications as described by Igumnova et al (Bioorg Med Chem, 2016, 24 (22), 5884-5894).
# (§2) Briefly, the bacterial inoculum was adjusted to approximately 2.5-3×10^4 cells/mL in Mueller-Hinton broth (MHB, Difco Laboratories, USA), and incubated in a ratio of 1:1 with test derivatives in polystyrene 96-well flat-bottom microplates (NUNC, Roskilde, Denmark). Positive growth control (without test derivatives) and negative control (without bacteria) were included. The reference antibiotic was oxytetracycline hydrochloride (Sigma Aldrich, Saint Louis, Mo., USA). The microplates were incubated in an EnVision microplate reader (Perkin-Elmer, Turku, Finland) placed in an incubator set to 35° C. for 48 h. The MIC value was defined as the lowest concentration of derivative resulting in no bacterial growth as determined by OD600 measurement. All derivatives were tested in three parallels.
# [3] = system: Escherichia coli ATCC 25922; experiment: MIC assay, antibiotic susceptible reference strain; conditions: ATCC25922; Escherichia coli ATCC 25922; read-out: Antimicrobial activity (MIC) E. c
# Method: as §1, §2
# [4] = system: Pseudomonas aeruginosa PA01, DSM 19880 (ATCC 15692); experiment: MIC assay, antibiotic susceptible reference strain; conditions: Pseudomonas aeruginosa PA01, DSM 19880 (ATCC 15692); read-out: Antimicrobial activity (MIC) P. a
# Method: as §1, §2
# [5] = system: Staphylococcus aureus ATCC 9144; experiment: MIC assay, antibiotic susceptible reference strain; conditions: ATCC9144; Staphylococcus aureus ATCC 9144; read-out: Antimicrobial activity (MIC) S. a
# Method: as §1, §2
Structure (SMILES),IC50 [1],MIC [2],MIC [3],MIC [4],MIC [5]
NCCCCN1C(=O)N(CCCCN)C(=O)C(CCCc2ccccc2)(CCCc2ccccc2)C1=O [Compound 9],2.9 µg/mL,,,,
"CN(C)[C@@H]1C(O)=C(C(N)=O)C(=O)[C@@]2(O)C(O)=C3C(=O)c4c(O)cccc4[C@@](C)(O)[C@H]3[C@H](O)[C@@H]12 [Oxytetracycline, reference compound]",,0.65 µg/mL,2.5 µg/mL,20 µg/mL,0.65 µg/mL

# Source: patent US11072588B2, “Barbituric acid derivatives comprising cationic and lipophilic groups” (UNIVERSITETET I TROMSØ—NORGES ARKTISKE UNIVERSITET, priority 2017, dated 2021)
